Assay results from publication PMC3376194 (Pharmacogenetics and Genomics, 2012).
Where “and” joins values, the source holds several entries; their conditions need not be identical. Equal entries are not always repeated. Where two headings read alike, the source gives them in different places.

How the values were obtained:
[1] = test system: PGHS-1; settings: cited from earlier work
[2] = biological target: T1, wildtype human PGHS-1 (Homo sapiens, UniProt P23219); assay: Reversible COX inhibition by NS-398, substrate dependence of COX activity; type: biochemical; settings: double reciprocal plot
[3] = biological target: T1, wildtype human PGHS-1; assay: COX kinetic parameters, oxygen uptake vs arachidonate; type: biochemical; settings: read-out: COX Km (μM arachidonate), WT, 37 °C, 100 μM HOOH
[4] = biological target: T2, R108Q variant of human PGHS-1 (Homo sapiens, UniProt P23219, R108Q); assay: as above; type: biochemical
[5] = biological target: T3, PGHS-1 V481I variant (Homo sapiens, UniProt P23219, V481I); assay: as above; type: biochemical; settings: read-out: COX Km (μM arachidonate), 0.025% Tween 20, 37 °C
[6] = biological target: T4, PGHS-1 L237M variant (Homo sapiens, UniProt P23219, L237M); assay: as above; type: biochemical; settings: read-out: COX Km (μM arachidonate), 0.025% Tween 20, 37 °C
[7] = biological target: PGHS-1 R53H variant (Homo sapiens, UniProt P23219, R53H); assay: Timed preincubation with aspirin, decay of surviving COX activity; type: biochemical; settings: 37 °C, preincubation with 0.4-5.3 mM aspirin, average ± SD
[8] = biological target: T2, R108Q variant of human PGHS-1; assay: as above; type: biochemical
[9] = biological target: T2, R108Q variant of human PGHS-1; assay: Analysis of Ki and k2 values for aspirin; type: biochemical; settings: 20 °C, aspirin potassium salt
[10] = test system: PGHS-1; settings: in blood ex vivo; cited from earlier work
[11] = biological target: T4, PGHS-1 L237M variant; assay: Timed preincubation with aspirin, decay of surviving COX activity; type: biochemical; settings: 37 °C, preincubation with 0.4-5.3 mM aspirin, average ± SD
[12] = biological target: T1, wildtype human PGHS-1; assay: as above; type: biochemical; settings: WT; 37 °C; preincubation with 0.4-5.3 mM aspirin; average ± SD
[13] = ingestion of 500-650 mg aspirin; cited from earlier work
[14] = hydrolysis in blood; cited from earlier work
[15] = test system: ovine PGHS-1; settings: cited from earlier work
[16] = biological target: T3, PGHS-1 V481I variant; assay: Timed preincubation with aspirin, decay of surviving COX activity; type: biochemical; settings: 37 °C, preincubation with 0.4-5.3 mM aspirin, average ± SD
[17] = test system: COX-1; settings: cited from earlier work

T1 sequence (P23219 24-599): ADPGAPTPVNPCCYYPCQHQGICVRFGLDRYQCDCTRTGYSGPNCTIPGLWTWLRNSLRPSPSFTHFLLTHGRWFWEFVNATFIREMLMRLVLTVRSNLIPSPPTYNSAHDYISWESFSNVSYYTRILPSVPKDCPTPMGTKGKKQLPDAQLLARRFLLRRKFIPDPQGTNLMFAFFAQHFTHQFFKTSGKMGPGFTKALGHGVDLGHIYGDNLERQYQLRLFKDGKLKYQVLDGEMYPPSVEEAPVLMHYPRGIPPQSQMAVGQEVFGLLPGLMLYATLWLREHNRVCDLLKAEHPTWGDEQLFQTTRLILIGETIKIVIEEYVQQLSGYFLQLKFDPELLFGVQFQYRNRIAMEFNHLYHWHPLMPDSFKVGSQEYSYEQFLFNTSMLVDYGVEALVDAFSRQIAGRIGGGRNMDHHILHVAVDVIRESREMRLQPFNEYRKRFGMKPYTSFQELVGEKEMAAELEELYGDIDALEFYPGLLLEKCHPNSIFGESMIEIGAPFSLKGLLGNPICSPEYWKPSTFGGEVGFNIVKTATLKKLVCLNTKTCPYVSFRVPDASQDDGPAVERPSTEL
T2 sequence (P23219 24-599 R108Q): as the sequence (P23219 24-599) above, with R85Q counted along it
T4 sequence (P23219 24-599 L237M): as the sequence (P23219 24-599) above, with L214M counted along it
T3 sequence (P23219 24-599 V481I): as the sequence (P23219 24-599) above, with V458I counted along it
PGHS-1 R53H variant, sequence (P23219 24-599 R53H): as the sequence (P23219 24-599) above, with R30H counted along it

CS(=O)(=O)Nc1ccc([N+](=O)[O-])cc1OC1CCCCC1 [NS-398]
Antagonism of PGHS-1 inactivation by aspirin [1]: potent antagonist
Effect on COX catalysis ([1]; even at low arachidonate levels): lack effect on COX catalysis
Type of COX inhibition [2]: reversible, competitive inhibitor

CCCCC/C=C\C/C=C\C/C=C\C/C=C\CCCC(=O)O [arachidonate]
Km ([3]; 0.025% Tween 20): 1.5 ± 0.4 µM
Km ([3]; 0.165% Tween 20): 19.8 ± 3.7 µM
Elevated arachidonate Km compared to wildtype [4]: 1.9 fold
Km value above the wildtype value ([4]; 0.165% Tween 20): 50%
Km ([4]; read-out: COX Km (μM arachidonate), 0.025% Tween 20, 37 °C): 2.8 ± 0.4 µM
Km ([4]; read-out: COX Km (μM arachidonate), 0.165% Tween 20, 37 °C): 29.7 ± 3.3 µM
Increase in Km value vs wildtype ([4]; standard conditions): 86%
Km [5]: 1.8 ± 0.2 µM
Km [6]: 1.8 ± 0.3 µM

CC(=O)Oc1ccccc1C(=O)O [aspirin, acetylsalicylic acid]
Aspirin reactivity (relative), k2'/[aspirin] normalized to wildtype value [7]: 0.91 ± 0.07 (n = 9) p = 0.042
Lower aspirin reactivity compared to wildtype ([8]; R108Q vs wildtype): 60%
k2'/aspirin (≈ k2/Ki) as percent of the wildtype value ([8]; R108Q, 37 °C): 40%
Aspirin reactivity (relative), k2'/[aspirin] normalized to wildtype value ([8]; R108Q, 37 °C, preincubation with 0.4-5.3 mM aspirin, average ± SD): 0.40 ± 0.05 (n = 7) p = 0.0001
Decrease in k2 (rate constant for acetyl group transfer) vs wildtype [9]: 30%
Increase in Ki for aspirin vs wildtype [9]: 70%
k2/Ki as percent of that for wildtype [9]: 42%
IC50 [10]: 0.002 mM
Aspirin reactivity (relative), k2'/[aspirin] normalized to wildtype value [11]: 0.86 ± 0.05 (n = 9) p = 0.001
Aspirin reactivity (relative), k2'/[aspirin] normalized to wildtype value [12]: 1.00 ± 0.10 (n = 9)
Peak plasma aspirin level [13]: 30 to 80 µM
Time of plasma aspirin peak [13]: ~ 30 min
t1/2 of aspirin in blood [14]: ~ 15 min
Aspirin reactivity ([15]; ovine PGHS-1, 30°C): 0.3 mM⁻¹ min⁻¹
Ki ([15]; read-out: Ki for aspirin, PGHS-1 (ovine)): ~20 mM and 14 to 20 mM
Aspirin reactivity (relative), k2'/[aspirin] normalized to wildtype value [16]: 0.82 ± 0.10 (n = 9) p = 0.001

O=C(O)c1ccccc1O [salicylic acid]
COX-1 inhibition [17]: negligible COX-1 inhibitor
